Results published in patent publication US20140370079A1, “METHOD FOR TARGETING VASCULAR RHOJ FOR INHIBITING TUMOR ANGIOGENESIS” (Korea Advanced Institute of Science and Technology (KAIST), priority 2013, published 2014).

Assays:
LLC tumor [1] = experiment: LLC implantation tumor model, tumor growth; format: in vivo, mouse; details: for maintenance of tumor growth response to CA4P: CA4P 50 mg/kg; for decrease of LLC tumor growth: RhoJ-WT mice
Procedure: (§1) LLC and B16F10 melanoma cells were obtained from American Type Culture Collection. To generate implantation tumor models, suspensions of tumor cells (1×10^6 cells in 100 μl) were SC injected into the dorsal flank of 8 to 10 weeks old mice. Tumor volumes were measured at given time points. Tumor volume was calculated according to the formula, 0.5×A×B^2, where A is the largest diameter of a tumor and B is its perpendicular diameter. Tumor growth rate is defined as increased tumor volume relative to 2 days before. Indicated days later, the mice were anesthetized and tissues were harvested for further analyses. Tamoxifen (4 mg/kg, 4 times every 2 days, Sigma-Aldrich) was IP injected into Cdh5(PAC)-Cre^ERT2;Rhor^fl/fl mice starting from the day before tumor implantation or after the tumor volume had exceeded 300 mm^3. Cisplatin (10 mg/kg, every 7 days, Sigma-Aldrich) is IP injected for cytotoxic chemotherapy when tumor volume exceeded 100 mm^3. VEGF-trap (25 mg/kg, indicated schedule) is SC injected as an AIA therapy. CA4P (50 mg/kg, every 2 days, Sigma-Aldrich) was IP injected as a VDA therapy. As a control, equal amounts of Fc or PBS was injected in the same manner. To knock down RhoJ in vivo, control or RhoJ siRNA (2 mg/kg, indicated schedule), which were encapsulated into aptEDB-LS complexes, were IV injected into tumor-bearing mice.

HUVECs [2] = experiment: In vitro vascular permeability assay (FITC-dextran across EC monolayer); format: cell-based, human; details: siJ-ECs treated with CA4P (20 nM) compared to siC-ECs treated with PBS
Procedure: (§2) HUVECs were purchased from Lonza, cultured in endothelial growth medium (EGM-2, Lonza) and incubated in a humidified atmosphere with 5% CO2 at 37° C. The cells used were between passages 3 to 8. Transfections of siRNA duplexes into HUVECs were performed using Lipofectamine® RNAiMAX (Invitrogen) at a final concentration of 40 nM according to the manufacturer's protocol.
For in vitro vascular permeability assay, HUVECs were cultured on collagen-coated 1.0 μm-size pore insert (Millipore). After starvation for 12 hr, the cells were treated with or without VEGF (50 ng/ml) or CA4P (20 nM) for 2 hr and was then incubated with 70 kDa FITC-Dextran for 20 min. Each solution in plate wells were read with a Victor X2 multilabel plate reader.

LLC tumor [3] = experiment: LLC tumor model, cytokeratin+ metastasis to inguinal LNs; format: in vivo, mouse; details: CA4P 50 mg/kg
Procedure: as §1, with “tumor-bearing mice. […]” for “tumor-bearing mice.”

[4] = test system: RhoA-ROCK signaling pathway; experiment: RhoA activity, ROCK activity and MLC phosphorylation in HUVECs; format: cell-based, human
Procedure: RhoA activities were determined using a RhoA activation assay kit (BK036, Cytoskeleton). […] Cells were lysed and the cell lysates were incubated with the rhotekin beads (50 μg/sample) for 1 h at 4° C., washed two times, and eluted with Laemmli sample buffer. Bound RhoA, which is an active form of RhoA, was analyzed by SDS-PAGE separation followed by immunoblotting with an anti-RhoA antibody (ARH03, Cyto skeleton). The amount of total RhoA was also analyzed by immunoblotting using the same antibody in order to normalize the relative activity of RhoA.
ROCK activities were determined using a ROCK activity assay kit (CSA001, Millipore). HUVECs were lysed and cell lysates were incubated for 1 hr at room temperature in 96-well plates pre-coated with recombinant MYPT1, which contain Thr696 residue that can be phosphorylated by active ROCK. The plates were washed and incubated with anti-phospho-MYPT1 (Thr696) antibody followed by incubation with HRP-conjugated secondary antibody and HRP substrate reagent. The relative amount of active ROCK was measured by a microplate reader at 450 nm (Bio-Rad).
At the indicated time, tumor tissues or cultured HUVECs were homogenized in ice-cold lysis buffer containing a protease inhibitor cocktail (Roche). […] Chemiluminescent signals were developed with HRP substrate (Millipore) and detected with a LAS-1000 mini (Fuji film).

HUVECs [5] = experiment: In vitro Matrigel tube formation assay; format: cell-based, human; details: siJ-ECs (RhoJ knockdown) with CA4P 20 nM, 12 hr; compared to single treatment
Procedure: as §2
For matrigel tube formation assay, growth factor reduced Matrigel (BD bioscience) was thawed overnight at 4° C. The Matrigel was allowed to solidify on a 4-well culture dishes at 37° C. for 30 min. Cells were harvested and seeded at a density of 2×10^4 cells/well in growth media. Cells were then incubated at 37° C. for a further 12 hr. Tube formation was observed by taking pictures using a Leica DM IL microscope. The matrigel assays were quantified by counting the number of nodes and tubules from five different fields for each condition.

LLC tumor vessels = experiment: LLC tumor model, CD31+ tumor vessel density; format: in vivo, mouse; details: for reduction of vascular density, intratumoral region / reduction of vascular density, peritumoral region: CA4P 50 mg/kg, 6 days after first treatment
Procedure: as §1
For hematoxylin and eosin (H&E) staining, tumors and indicated organs were fixed overnight in 4% paraformaldehyde (PFA). After tissue processing using standard procedures, samples were embedded in paraffin and cut into 3-1 μm sections followed by H&E staining. For immunofluorescence studies, samples were fixed in 1% PFA, dehydrated in 20% sucrose solution overnight, and embedded in tissue freezing medium (Leica). Frozen blocks were cut into 50-1 μm sections. Samples were blocked with 5% goat (or donkey) serum in PBST (0.03% Trition X-100 in PBS) and then incubated for 3 hr at room temperature (RT) with the following primary antibodies: anti-GFP (rabbit polyclonal, Millipore), anti-CD31 (hamster, clone 2H8, Millipore), anti-RhoJ (mouse, clone 1E4, Novus), anti-RhoJ (mouse, clone 1D7, OriGene), FITC-conjugated anti-c′-SMA (mouse, clone 1A4, Sigma-Aldrich), anti-VE-cadherin (rat, clone 11D4.1, BD Phamingen), anti-VE-cadherin (rabbit, clone D87F2, Cell Signaling), anti-PDGFRβ (rat, eBioscience), anti-Ter119 (rat, clone TER-119, eBioscience), anti-caspase-3 (rabbit polyclonal, R&D systems), anti-LYVE-1 (rabbit polyclonal, Angiobio), anti-pan-cytokeratin (mouse, clone AE1/AE3, Abcam), anti-melanin-A (rabbit polyclonal, Abcam), anti-collagen type IV (rabbit polyclonal, Cosmo Bio), or anti-cisplatin modified DNA (rat monoclonal, Abcam). After several washes, the samples were incubated for 2 hr at RT with the following secondary antibodies: FITC-, Cy3-, or Cy5-conjugated anti-hamster IgG (Jackson ImmunoResearch), FITC- or Cy3-conjugated anti-rabbit IgG (Jackson ImmunoResearch), Cy3-conjugated anti-rat IgG (Jackson ImmunoResearch), or Cy3-conjugated anti-mouse IgG (Jackson ImmunoResearch). Goat Fab fragment anti-mouse IgG (Jackson ImmunoResearch) was used to block endogenous mouse IgG to use mouse antibody on mouse tissues. F-actin was stained with acti-stain 555 phalloidin (Cytoskeleton). Nuclei were stained with 4′,6-diamidino-2-phenylindole (DAPI, Invitrogen). Then the samples were mounted with fluorescent mounting medium (DAKO) and immunofluorescent images were acquired using a Zeiss LSM510 confocal microscope (Carl Zeiss). To detect the hypoxic areas in the tumors, Hypoxyprobe-1™ (60 mg/kg, solid pimonidazole hydrochloride, Natural Pharmacia International) was IV injected 90 min before perfusion-fixation. The tumors were then harvested, sectioned, and stained with FITC-conjugated anti-Hypoxyprobe antibody.
Density measurement of blood vessels, metastasis, hemorrhagic area, leakage area, and perfusion area were performed with ImageJ software (http://rsb.info.nih.gov/ij). […]

LLC tumor [6] = experiment: LLC tumor model, intratumoral necrosis and hemorrhage (H&E); format: in vivo, mouse; details: RhoJ-KO mice treated with cisplatin compared to RhoJ-WT mice treated with cisplatin; 2 weeks after treatment
Procedure: To generate implantation tumor models, suspensions of tumor cells (1×10^6 cells in 100 μl) were SC injected into the dorsal flank of 8 to 10 weeks old mice. Tumor volumes were measured at given time points. Tumor volume was calculated according to the formula, 0.5×A×B^2, where A is the largest diameter of a tumor and B is its perpendicular diameter. Tumor growth rate is defined as increased tumor volume relative to 2 days before. Indicated days later, the mice were anesthetized and tissues were harvested for further analyses. […]
Density measurement of blood vessels, metastasis, hemorrhagic area, leakage area, and perfusion area were performed with ImageJ software (http://rsb.info.nih.gov/ij). For blood vessel density, CD31^+ area per random 0.42 mm^2 areas was measured in the peri- and intratumoral regions. To determine the amount of blood vessels that express RhoJ, GFP^+&CD31^+ area per CD31^+ area in five random 0.42 mm^2 areas were calculated. In addition, to find the percentage of CD31^+ endothelial cells within RhoJ-GFP expressing cells, the GFP^+&CD31^+ area per total GFP^+ area was also calculated. […] The area of cytokeratin^+ fluorescence was presented as % per total sectioned area of lymph node. […] The extent of hemorrhage was measured as a % of Ter-119^+ area per random 0.24 mm^2 areas. Vascular leakage was quantified as the dextran^+ area % per random 0.42 mm^2.

LLC tumor [7] = experiment: Intratumoral cisplatin-modified DNA area in LLC tumor; format: in vivo, mouse; details: RhoJ-KO mice compared to RhoJ-WT mice
Procedure: as §1, with “tumor-bearing mice. […]” for “tumor-bearing mice.”

[8] = LLC implanted WT mice, en-siJ 2 mg/kg, VEGF-trap 25 mg/kg, 12 days after first treatment
[9] = RhoJ-KO mice, VEGF-trap 25 mg/kg, 9 days after first treatment
[10] = RhoJ-WT mice, VEGF-trap 25 mg/kg, 9 days after first treatment

## COc1ccc(/C=C\c2cc(OC)c(OC)c(OC)c2)cc1OP(=O)(O)O [CA4P, combretastatin-A4-phosphate]
LLC tumor [1]; LLC, RhoJ-KO mice, CA4P 50 mg/kg IP every 2 days
  additional inhibition in tumor growth: 79%
LLC tumor [1]; LLC, WT mice, CA4P 50 mg/kg IP every 2 days
  reduction in tumor growth: 18%
LLC tumor [1]; RhoJ-KO mice
  maintenance of tumor growth response to CA4P: durable response
LLC tumor [1]; WT mice
  maintenance of tumor growth response to CA4P: not maintained
HUVECs [2]
  increase in permeability across the EC monolayer: 2.9 fold
LLC tumor [3]; RhoJ-KO mice
  reduction of metastasis (inguinal LNs): 67%
LLC tumor [3]; RhoJ-WT mice
  reduction of metastasis (inguinal LNs): no reduction
[4]; RhoJ knockdown in combination with CA4P 20 nM, 30 min
  RhoA-ROCK signaling pathway (MLC phosphorylation): further activated
HUVECs [5]
  EC tube formation: almost complete disruption
LLC tumor vessels; RhoJ-KO mice
  reduction of vascular density, intratumoral region: 60%
  reduction of vascular density, peritumoral region: 59%
LLC tumor vessels; RhoJ-WT mice
  reduction of vascular density, intratumoral region: 31%
  reduction of vascular density, peritumoral region: 13%

## N.N.[Cl][Pt][Cl] [Cisplatin, cisplatin]
LLC tumor [1]; RhoJ-KO mice, cisplatin 10 mg/kg IP once every week from tumor volume >100 mm^3
  delay of LLC tumor growth: 90%
LLC tumor [1]; cisplatin 10 mg/kg IP once every week from tumor volume >100 mm^3
  decrease of LLC tumor growth: 64%
LLC tumor [6]
  increased intratumoral necrosis: 80%
LLC tumor [7]
  increase in intratumoral accumulation of cisplatin: ~2.0 fold

## C[C@@H](N)[C@H]1CC[C@H](C(=O)Nc2ccncc2)CC1 [Y-27632]
[4]; siJ-ECs treated with Y-27632 (up to 20 μM) for 1 hr
  RhoA activity, ROCK activity and MLC phosphorylation increased in siJ-ECs, after ROCK inhibitor: almost completely diminished

## VEGF-trap: VEGF decoy receptor; recombinant protein from stable CHO cell lines, sequesters VEGF
LLC tumor [1]; RhoJ-KO mice, VEGF-trap 25 mg/kg SC, vs Fc
  delay of LLC tumor growth: 88%
LLC tumor [1]; VEGF-trap 25 mg/kg SC, vs Fc
  decrease of LLC tumor growth: 47%
LLC tumor vessels; [8]
  decrease of tumor vessel density, intratumoral region: ~50%
  decrease of tumor vessel density, peritumoral region: ~45%
LLC tumor vessels; [9]
  reduction of tumor vascular density, intratumoral area: 68%
  reduction of tumor vascular density, peritumoral area: 66%
LLC tumor vessels; [10]
  decrease of tumor vascular density, intratumoral area: 49%
  decrease of tumor vascular density, peritumoral area: 43%
